Experimental data from patent US8796292B2, “Selective antibacterials for clostridium difficile infections” (GLSynthesis Inc., priority 2009, dated 2014).
Values after ≈ are worked out from the molar mass of the structure shown. Like-named read-outs stand apart in the source and are kept apart here.

Legend:
Test in all cases: agar dilution MIC assay of anaerobic bacteria
L. casei = type: cell-based, Lactobacillus casei; conditions: Lacticaseibacillus casei, Micromyx Number 1722, Table 1
Experimental: (§1) Each compound was assayed against a panel of anaerobic bacteria in culture, consisting of Gram-positive organisms, such as Lactobacilli, Bifidobacteria, Clostridium spp., and Gram-negative bacteria, such as […] fragilis spp., according to guidelines of the Clinical and Laboratory Standards Institute (CLSI document M11-A7, CLSI, Wayne, Pa., 2007). […] One tenth mL of diluted bacteria containing 500-1000 colony-forming units (CFU) was plated and spread, and the plates incubated at 37° C. for 24-48 hours. MIC (minimum inhibitory concentration) is equivalent to the lowest concentration in μg/ml at which growth, i.e., colony formation, is not observed. […] Bacteria were assayed using a reference agar dilution method. Drug dilutions and drug-supplemented agar plates were prepared manually. The test organisms were maintained frozen at −80° C. The isolates were sub-cultured on Supplemented Brucella Agar (SBA) plates in a Bactron II anaerobic chamber and incubated for 48 hours at 35-36° C. in the Bactron II anaerobe chamber. Following inoculation, the drug-supplemented plates were incubated at 35° C. for 48 hours in the anaerobic environment (5% hydrogen, 5% carbon dioxide, 90% nitrogen) of the Bactron II. The MIC in μg/ml was read per Clinical and Laboratory Standards Institute guidelines.

Ba. fragilis = type: cell-based; conditions: Bacteroides fragilis, Ba. fragilis, Micromyx Number 0123 (ATCC strain), Gram negative, Table 1
Experimental: as §1

L. acidophilus = type: cell-based; conditions: Lactobacillus acidophilus, Micromyx Number 0681, Table 1
Experimental: as §1

Bi. brevi = type: cell-based, Bifidobacterium brevi; conditions: Bifidobacterium; Bi. brevi, Micromyx Number 3967, Table 1
Experimental: as §1

Bi. longum = type: cell-based, Bifidobacterium longum; conditions: Bifidobacterium longum; Bi. longum, Micromyx Number 3968, Table 1; read-out: MIC
Experimental: as §1

E. lentum = type: cell-based, Eubacterium lentum; conditions: Eggerthella lenta; E. lentum, Micromyx Number 1274, Table 1; read-out: MIC
Experimental: as §1

C. difficile = type: cell-based, Clostridium difficile
Experimental: as §1

[1] = Clostridioides difficile, C. difficile, Micromyx Number 1209, Table 1, read-out: MIC
[2] = Clostridioides difficile, C. difficile, Micromyx Number 3579, Table 1, read-out: MIC
[3] = Clostridioides difficile, C. difficile, Micromyx Number 3580, Table 1, read-out: MIC
[4] = Clostridioides difficile, C. difficile, Micromyx Number 3581, Table 1, read-out: MIC
[5] = Clostridioides difficile, C. difficile, Micromyx Number 3582, Table 1, read-out: MIC
[6] = Clostridioides difficile, C. difficile, Micromyx Number 3584, Table 1, read-out: MIC
[7] = Clostridioides difficile, C. difficile, Micromyx Number 3585, Table 1, read-out: MIC
[8] = Clostridioides difficile, C. difficile, Micromyx Number 3586, Table 1, read-out: MIC
[9] = Clostridioides difficile, C. difficile, Micromyx Number 3587, Table 1, read-out: MIC
[10] = Clostridioides difficile, C. difficile, Micromyx Number 3588, Table 1, read-out: MIC
[11] = Clostridioides difficile, C. difficile, Micromyx Number 3589, Table 1, read-out: MIC
[12] = Clostridioides difficile, C. difficile, Micromyx Number 3590, Table 1, read-out: MIC
[13] = Clostridioides difficile, C. difficile, Micromyx Number 3591, Table 1, read-out: MIC
[14] = Clostridioides difficile, C. difficile, Micromyx Number 3593, Table 1, read-out: MIC
[15] = Clostridioides difficile, C. difficile, Micromyx Number 3594, Table 1, read-out: MIC
[16] = Clostridioides difficile, C. difficile, Micromyx Number 3595, Table 1, read-out: MIC
[17] = Clostridioides difficile, C. difficile, Micromyx Number 4381 (ATCC strain), Table 1, read-out: MIC

MIC (L. casei)	MIC (Ba. fragilis)	MIC (L. acidophilus)	MIC (Bi. brevi)	MIC (Bi. longum)	MIC (E. lentum)	MIC (C. difficile; [1])	MIC (C. difficile; [2])	MIC (C. difficile; [3])	MIC (C. difficile; [4])	MIC (C. difficile; [5])	MIC (C. difficile; [6])	MIC (C. difficile; [7])	MIC (C. difficile; [8])	MIC (C. difficile; [9])	MIC (C. difficile; [10])	MIC (C. difficile; [11])	MIC (C. difficile; [12])	MIC (C. difficile; [13])	MIC (C. difficile; [14])	Compound	further results
32 µg/mL (≈ 86.6 µM)	> 32 µg/mL	16 µg/mL (≈ 43.3 µM)	> 32 µg/mL	> 32 µg/mL	> 32 µg/mL	16 µg/mL (≈ 43.3 µM)	16 µg/mL (≈ 43.3 µM)	8 µg/mL (≈ 21.7 µM)	8 µg/mL (≈ 21.7 µM)	> 32 µg/mL	8 µg/mL (≈ 21.7 µM)	16 µg/mL (≈ 43.3 µM)	8 µg/mL (≈ 21.7 µM)	8 µg/mL (≈ 21.7 µM)	4 µg/mL (≈ 10.8 µM)	16 µg/mL (≈ 43.3 µM)	8 µg/mL (≈ 21.7 µM)	8 µg/mL (≈ 21.7 µM)	16 µg/mL (≈ 43.3 µM)	CCc1cc(Nc2nc3ncn(CCCCCOC)c3c(=O)[nH]2)ccc1C [Compound 315C]	MIC (C. difficile; [15]): 8 µg/mL (≈ 21.7 µM); MIC (C. difficile; [16]): 8 µg/mL (≈ 21.7 µM); MIC (C. difficile; [17]): 8 µg/mL (≈ 21.7 µM)
2 µg/mL (≈ 4.71 µM)	1 µg/mL (≈ 2.35 µM)	4 µg/mL (≈ 9.41 µM)	0.12 µg/mL (≈ 0.282 µM)	≤ 0.03 µg/mL	0.12 µg/mL (≈ 0.282 µM)	4 µg/mL (≈ 9.41 µM)	16 µg/mL (≈ 37.6 µM)	8 µg/mL (≈ 18.8 µM)	> 16 µg/mL	0.5 µg/mL (≈ 1.18 µM)	8 µg/mL (≈ 18.8 µM)	8 µg/mL (≈ 18.8 µM)	8 µg/mL (≈ 18.8 µM)	8 µg/mL (≈ 18.8 µM)	8 µg/mL (≈ 18.8 µM)	> 16 µg/mL	8 µg/mL (≈ 18.8 µM)	8 µg/mL (≈ 18.8 µM)	8 µg/mL (≈ 18.8 µM)	CCC[C@@H]1C[C@@H](C(=O)N[C@@H]([C@H]2O[C@H](SC)[C@H](O)[C@@H](O)[C@H]2O)[C@H](C)Cl)N(C)C1 [clindamycin, reference compound]	MIC (C. difficile; [15]): > 16 µg/mL; MIC (C. difficile; [16]): > 16 µg/mL; MIC (C. difficile; [17]): 4 µg/mL (≈ 9.41 µM)
																				O=c1[nH]c(NCc2ccc(Cl)c(Cl)c2)nc2ncn(CCCN3CCOCC3)c12 [Compound 363A]	MIC (C. difficile; C. diff. Strain no. 18285, Table 4): 8 µg/mL (≈ 18.3 µM); MIC (C. difficile; C. diff. Strain no. 19265, Table 4): 8 µg/mL (≈ 18.3 µM); MIC (C. difficile; C. diff. Strain no. 19273, Table 4): 4 µg/mL (≈ 9.15 µM); MIC (C. difficile; C. diff. Strain no. 19281, Table 4): 8 µg/mL (≈ 18.3 µM); MIC (C. difficile; C. diff. Strain no. 19291, Table 4): 4 µg/mL (≈ 9.15 µM); MIC (C. difficile; C. diff. Strain no. 19369, Table 4): 8 µg/mL (≈ 18.3 µM); MIC (C. difficile; C. diff. Strain no. 19382, Table 4): 2 µg/mL (≈ 4.57 µM); MIC (C. difficile; C. diff. Strain no. 19540, Table 4): 4 µg/mL (≈ 9.15 µM); MIC (C. difficile; C. diff. Strain no. 19580, Table 4): 2 µg/mL (≈ 4.57 µM); MIC (C. difficile; C. diff. Strain no. 19680, Table 4): 8 µg/mL (≈ 18.3 µM); MIC (C. difficile; C. diff. Strain no. 19681, Table 4): 4 µg/mL (≈ 9.15 µM); MIC (C. difficile; C. diff. Strain no. 19683, Table 4): 8 µg/mL (≈ 18.3 µM); MIC (C. difficile; C. diff. Strain no. 19687, Table 4): 8 µg/mL (≈ 18.3 µM); MIC (C. difficile; C. diff. Strain no. 20066, Table 4): 8 µg/mL (≈ 18.3 µM); MIC (C. difficile; C. diff. Strain no. 20152, Table 4): 8 µg/mL (≈ 18.3 µM); MIC (C. difficile; C. diff. Strain no. 20307, Table 4): 2 µg/mL (≈ 4.57 µM); MIC (C. difficile; C. diff. Strain no. 20494, Table 4): 8 µg/mL (≈ 18.3 µM); MIC (C. difficile; C. diff. Strain no. 20680, Table 4): 8 µg/mL (≈ 18.3 µM); MIC (C. difficile; C. diff. Strain no. 20934, Table 4): 2 µg/mL (≈ 4.57 µM); MIC (C. difficile; C. diff. Strain no. 21099, Table 4): 8 µg/mL (≈ 18.3 µM)
